# Key:
# [1] = system: premature senescent retinal pigmented epithelial cells (ARPE) by doxorubicin; assay type: cell-based, human
# Procedure: (§1) Each cell was treated in a serum-free culture solution containing doxorubicin (0.5 μM) for 4 hours. After washing the cells with a serum-free culture solution, the cells were cultured for 4 days in a culture solution containing 10% FBS, and then cellular aging was confirmed by measuring the level of senescence by staining with senescence-associated beta galactosidase.
# Cytotoxicity against young and senescent cells was investigated with a lactate dehydrogenase (LDH) activity kit (Dojindo Molecular Technologies Inc.). Young cells (1×10^3 cells/100 μl/well) or senescent cells (2×10^3 cells/100 μl/well) were dispensed into a 96-well plate, and then cultured overnight in a 37° C., 5% CO2 incubator.
# Salinomycin, ABT263 and rapamycin were treated at each concentration, and then incubated for 4 days in a 37° C., 5% CO2 incubator. After transferring the cell culture solution to a 1.5 ml tube, it was centrifuged at 4° C. and 12,000 rpm. 100 μl of the supernatant was dispensed into a 96-well plate, and 100 μl of the LDH measurement solution was added to each well, followed by reaction in a CO2 incubator for 30 minutes. 50 μl of the LDH reaction stop solution was added, and absorbance was measured at 490 nm using a microplate reader. The level of LDH activity was expressed as a relative value based on the absorbance of the control group treated with only DMSO.
# [2] = system: replicative senescent vascular endothelial cells (HUVEC); assay: CCK-8 cell survival, replicative senescent HUVEC; assay type: cell-based, human; settings: according to concentration of salinomycin; FIG. 4C
# Procedure: After dispensing 2×10^5 cells in a 100 mm culture dish, they were cultured in a 37° C., 5% CO2 incubator. When the cells grew to 80-90% in the culture dish, the cells were removed by treatment with trypsin-EDTA, and the number of cells was measured, and the cell population doubling time (PDT) was measured.
# By successively subculturing the cells in the same process as described above, replication aging was induced. PDT of young fibroblasts was 36 hours, PDT of replicative senescent fibroblasts was 12 days, PDT of young vascular endothelial cells was 24 hours, and PDT of replicative senescent vascular endothelial cells was 7 days.
# After each sample was dissolved in DMSO, young cells, replicative senescent cells and senescent cells in which premature aging was induced by treating with doxorubicin were treated with 100 nM salinomycin, 100 nM rapamycin, 100 nM ABT263. […]
# Young cells (1×10^3 cells/well) or senescent cells (2×10^3 cells/well) were dispensed into a 96-well plate, and cultured overnight in a 37° C., 5% CO2 incubator. […] Then, the absorbance was measured at 450 nm using a Microplate reader.
# (§2) The degree of cell survival was expressed as a relative value for the absorbance of the control group treated with only DMSO as 100%.
# [3] = system: premature senescent human fibroblasts induced by doxorubicin (HDF); assay: SAβG activity staining, doxorubicin-induced premature senescent human fibroblasts; assay type: cell-based; settings: 100 nM, 4 days; compared to DMSO-treated group; FIG. 1A, 1B
# Procedure: as §1
# (§3) After each sample was dissolved in DMSO, young cells, replicative senescent cells and senescent cells in which premature aging was induced by treating with doxorubicin were treated with 100 nM salinomycin, 100 nM rapamycin, 100 nM ABT263. After incubation for 4 days in a 37° C., 5% CO2 incubator, the degree of cell survival was confirmed by CCK-8 analysis, the degree of cellular aging was confirmed by senescence-associated β-galactosidase (SAβG) staining, p53 and p16 protein expression analysis.
# The cells were washed with 1× phosphate buffer solution, and fixed with a phosphate buffer solution containing 3.7% (v/v) paraformaldehyde. After adding 1 mg/ml 5-bromo-4-chloro-3-indolyl-β-D-galactoside, 40 mM citric acid-sodium phosphate (pH 6.0), 5 mM potassium ferricyanide, 5 mM potassium ferrocyanide, 150 mM NaCl, and 2 mM MgCl2 solution, it was reacted at 37° C. for 18 hours. It was stained with eosin as a control stain and cells stained blue in the cytoplasm were identified using an optical microscope. […]
# [4] = system: pulmonary fibrosis induced by bleomycin; assay type: in vivo, C57BL/6J mice; settings: compared to PBS group
# Procedure: Animal experiments were conducted with the approval of the Animal Experimental Ethics Committee, Yeungnam University College of Medicine (YUMC-AEC2018-025). After anesthetizing by injecting 2.5% avertin (Avertin; 0.025 ml/g) into the abdominal cavity of 10-week-old C57BL/6J male mice, 2 mU/g of bleomycin was instilled into the bronchi and injected into the lungs.
# From 5 days after bleomycin administration, 2.5 μl of 10 mM salinomycin was diluted in 100 μl phosphate buffer solution at intervals of 3 days and injected intraperitoneally 6 times (Sal group).
# Three mice were used for each group, and lungs were excised by sacrifice 22 days after bleomycin injection and fixed in 10% formalin solution or stored frozen in liquid nitrogen.
# The tissue fixed in 10% formalin solution was embedded with paraffin and cut into 4 μm to prepare a tissue sample. After removing paraffin from the tissue sample, hematoxylin-eosin staining, trichrome staining, and PAS staining were performed.
# The degree of fibrosis was measured by analyzing the degree of collagen staining using the i-Solution™ software program (IMT Inc., Canada) after trichrome staining and the degree of cell senescence in tissue samples was investigated by staining lipofuscin with Sudan black B (Viegas M S, et al., European journal of histochemistry: EJH. 2007). The degree of peritoneal fibrosis was confirmed by measuring the submesothelial thickness of the peritoneal mesothelial cell layer using the NIH Image J program.
# In addition, lung tissue samples were prepared, and hematoxylin-eosin staining and trichrome staining were performed to confirm the degree of damage to the lung tissue and the degree of lung fibrosis.
# young fibroblasts (HDF) = assay: CCK-8 cell survival, young human fibroblasts; assay type: cell-based; settings: young cells, increasing concentration of salinomycin; FIG. 2A, 2D
# Procedure: as §3
# Young cells (1×10^3 cells/well) or senescent cells (2×10^3 cells/well) were dispensed into a 96-well plate, and cultured overnight in a 37° C., 5% CO2 incubator. Salinomycin, ABT263 and rapamycin were treated at each concentration, and then incubated for 4 days in a 37° C., 5% CO2 incubator. 10 μl of CCK-8 reagent (Dojindo Molecular Technologies Inc., Kumamoto, Japan) was added to each well, and incubated for 2 hours in an incubator. Then, the absorbance was measured at 450 nm using a Microplate reader.
# as §2
compound,measurement,setting,value
CC[C@@H](C(=O)[C@@H](C)[C@@H](O)[C@H](C)[C@@H]1O[C@@H]([C@@H](CC)C(=O)O)CC[C@@H]1C)[C@H]1O[C@]2(C=C[C@@H](O)[C@]3(CC[C@@](C)([C@H]4CC[C@](O)(CC)[C@H](C)O4)O3)O2)[C@H](C)C[C@@H]1C [salinomycin],cytotoxicity by LDH activity,[1],significantly increased
same,cell survival (CCK-8),[2],did not affect
same,SAβG activity,[3],significantly reduced
same,degree of lung tissue damage,"[4]; hematoxylin-eosin staining, FIG. 8C, 8D",statistically significantly reduced
same,body weight,"[4]; i.p. 6 times at 3-day intervals, FIG. 8B",further increased
same,degree of lung fibrosis,"[4]; trichrome staining, FIG. 8C, 8D",statistically significantly reduced
same,cell survival (CCK-8),young fibroblasts (HDF),no change

# From US12083093B2, “Composition for preventing or treating cellular senescence-related diseases comprising salinomycin as effective component” (RESEARCH COOPERATION FOUNDATION OF YEUNGNAM UNIVERSITY, priority 2018, dated 2024)
